EC50 data for 36 compounds are collected here from BindingDB's records for patent WO2022076764 (BRISTOL-MYERS SQUIBB COMPANY, 2022).

The target in assay [1] is T1, N-formyl peptide receptor 2 (Homo sapiens, UniProt P25090).
T1 sequence (P25090 whole entry): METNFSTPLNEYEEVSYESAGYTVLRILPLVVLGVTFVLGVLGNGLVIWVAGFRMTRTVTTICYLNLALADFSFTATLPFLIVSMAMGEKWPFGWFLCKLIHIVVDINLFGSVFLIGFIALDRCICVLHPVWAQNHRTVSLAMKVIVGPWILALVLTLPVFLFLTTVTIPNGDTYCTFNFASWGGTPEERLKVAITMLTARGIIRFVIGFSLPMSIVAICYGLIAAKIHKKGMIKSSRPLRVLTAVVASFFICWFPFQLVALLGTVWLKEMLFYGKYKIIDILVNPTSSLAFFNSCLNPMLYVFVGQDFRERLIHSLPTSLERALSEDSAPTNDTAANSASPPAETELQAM

The next assay deals with T2, fMet-Leu-Phe receptor (Homo sapiens, UniProt P21462).
T2 sequence (P21462 whole entry): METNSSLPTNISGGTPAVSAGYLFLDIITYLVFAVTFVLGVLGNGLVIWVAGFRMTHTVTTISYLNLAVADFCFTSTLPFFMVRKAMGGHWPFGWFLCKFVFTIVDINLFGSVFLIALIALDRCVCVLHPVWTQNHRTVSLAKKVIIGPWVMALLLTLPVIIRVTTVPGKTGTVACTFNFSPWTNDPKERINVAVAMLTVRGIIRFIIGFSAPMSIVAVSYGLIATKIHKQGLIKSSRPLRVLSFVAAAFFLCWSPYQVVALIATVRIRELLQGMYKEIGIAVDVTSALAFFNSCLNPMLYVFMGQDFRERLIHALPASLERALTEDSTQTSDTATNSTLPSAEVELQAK

For `COc1cc(F)c(-n2cc(CC(C)C)nc2NC(=O)c2ccc(OC(F)F)cc2)c(F)c1` [WO2022076764, Example 35], the concentration giving a half-maximal response (EC50) (commonly the midpoint of the concentration-response curve) in assay [1] came to 1400 nM; at fMet-Leu-Phe receptor it was 99 nM.
As for `COc1cc(F)c(-n2cc(C(=O)N3CCNC(=O)C3)nc2NC(=O)c2ccc(OC(F)F)cc2)c(F)c1` [WO2022076764, Example 58], the EC50 in assay [1] was 3400 nM; at fMet-Leu-Phe receptor, 170 nM.
The matching figures for `COc1cc(F)c(-n2cc(C(=O)NCCCO)nc2NC(=O)c2ccc(OC(F)F)cc2)c(F)c1` [WO2022076764, Example 60]: 1400 nM and 56 nM.
With `COc1cc(F)c(-n2cc(-c3ccc(C(F)(F)F)cc3)nc2NC(=O)c2ccc(OC(F)F)cc2)c(F)c1` [WO2022076764, Example 6], the EC50 in assay [1] came to 120 nM; on fMet-Leu-Phe receptor, 76 nM.
Take `COc1cc(F)c(-n2cc(-c3ccc(C)cc3)nc2NC(=O)c2ccc(OC(F)F)cc2)c(F)c1` [WO2022076764, Example 15]: the EC50 in assay [1] was 130 nM; at fMet-Leu-Phe receptor, 23 nM.
The matching figures for `COc1cc(F)c(-n2cc(-c3ccccc3F)nc2NC(=O)c2ccc(OC(F)F)cc2)c(F)c1` [WO2022076764, Example 33]: 940 nM and 39 nM.
The matching figures for `COc1cc(F)c(-n2cc(-c3cccc(Cl)c3)nc2NC(=O)c2ccc(OC(F)F)cc2)c(F)c1` [WO2022076764, Example 12]: 450 nM and 15 nM.
The like results for `CCc1cn(-c2c(F)cc(OC)cc2F)c(NC(=O)c2ccc(OC(F)F)cc2)n1` [WO2022076764, Example 39] were, in that order, 1000 nM and 21 nM.
For the compound `COc1cccc(-c2cn(-c3c(F)cc(OC)cc3F)c(NC(=O)c3ccc(OC(F)F)cc3)n2)c1` [WO2022076764, Example 3], the figures for the EC50 (in assay [1]; at fMet-Leu-Phe receptor) were 88 nM and 8 nM, respectively.
The matching figures for `COc1ccc(-n2cc(-c3ccc4c(c3)CCO4)nc2NC(=O)c2ccc(OC(F)F)cc2)cc1` [WO2022076764, Example 19]: 93 nM and 28 nM.
The like results for `COc1cc(F)c(-n2cc(-c3ccc(F)cc3)nc2NC(=O)c2ccc(OC(F)F)cc2)c(F)c1` [WO2022076764, Example 4] were, in that order, 400 nM and 11 nM.
The like results for `CCOC(=O)Cc1cn(-c2c(F)cc(OC)cc2F)c(NC(=O)c2ccc(OC(F)F)cc2)n1` [WO2022076764, Example 72] were, in that order, 470 nM and 22 nM.
On to `COc1ccc(-n2cc(C(C)(C)C)nc2NC(=O)c2ccc(OC(F)F)cc2)cc1` [WO2022076764, Example 32], for which the figures for the EC50 (in assay [1]; on fMet-Leu-Phe receptor) were 110 nM and 18 nM, respectively.
The matching figures for `COc1cc(F)c(-n2cc(C3CCN(C(=O)CCC(N)=O)CC3)nc2NC(=O)c2ccc(OC(F)F)cc2)c(F)c1` [WO2022076764, Example 67]: 83 nM and 54 nM.
The like results for `COc1cc(F)c(-n2cc(-c3cccc(F)c3)nc2NC(=O)c2ccc(OC(F)F)cc2)c(F)c1` [WO2022076764, Example 10] were, in that order, 200 nM and 7 nM.
The matching figures for `COc1cc(F)c(-n2cc(C(=O)N3CCCC(O)C3)nc2NC(=O)c2ccc(OC(F)F)cc2)c(F)c1` (configuration not stated) [WO2022076764, Example 51]: 2900 nM and 83 nM.
For `COc1cc(F)c(-n2cc(C(=O)NCc3ccncc3)nc2NC(=O)c2ccc(OC(F)F)cc2)c(F)c1` [WO2022076764, Example 48], the EC50 came to 600 nM in assay [1] and 110 nM on fMet-Leu-Phe receptor.
The like results for `COc1cc(F)c(-n2cc(C(=O)N3CCC(O)CC3)nc2NC(=O)c2ccc(OC(F)F)cc2)c(F)c1` [WO2022076764, Example 52] were, in that order, more than 10000 nM and 63 nM.
The matching figures for `COc1cc(F)c(-n2c(NC(=O)c3ccc(OC(F)F)cc3)nc(-c3ccccc3)c2C)c(F)c1` [WO2022076764, Example 8]: 230 nM and 8 nM.
As for `COc1cc(F)c(-n2cc(C3CNC3)nc2NC(=O)c2ccc(OC(F)F)cc2)c(F)c1` [WO2022076764, Example 79], the EC50 was found to be 4200 nM in assay [1] and 81 nM at fMet-Leu-Phe receptor.
Take `COc1ccc(-n2cc(-c3ccccn3)nc2NC(=O)c2ccc(OC(F)F)cc2)cc1` [WO2022076764, Example 28]: the results for the EC50 (in assay [1]; on fMet-Leu-Phe receptor) were 1030 nM and 700 nM, respectively.
The like results for `CCOC(=O)c1cn(-c2c(F)cc(OC)cc2F)c(NC(=O)c2ccc(OC(F)F)cc2)n1` [WO2022076764, Example 38] were, in that order, 620 nM and 15 nM.
The matching figures for `CCNC(=O)N1CCC(c2cn(-c3c(F)cc(OC)cc3F)c(NC(=O)c3ccc(OC(F)F)cc3)n2)CC1` [WO2022076764, Example 66]: 540 nM and 28 nM.
The matching figures for `COc1cc(F)c(-n2cc(C(=O)NCc3cc[nH]n3)nc2NC(=O)c2ccc(OC(F)F)cc2)c(F)c1` [WO2022076764, Example 44]: 370 nM and 48 nM.
Regarding `COc1cc(F)c(-n2cc(C(=O)N3CC[C@H](O)C3)nc2NC(=O)c2ccc(OC(F)F)cc2)c(F)c1` [WO2022076764, Example 57], the EC50 in assay [1] worked out at 1900 nM; on fMet-Leu-Phe receptor, 120 nM.
In the case of `COc1cc(F)c(-n2cc(Cc3nnc(C)o3)nc2NC(=O)c2ccc(OC(F)F)cc2)c(F)c1` [WO2022076764, Example 73], the EC50 stood at 300 nM in assay [1] and 23 nM on fMet-Leu-Phe receptor.
The like results for `COc1cc(F)c(-n2cc(C(F)(F)F)nc2NC(=O)c2ccc(OC(F)F)cc2)c(F)c1` [WO2022076764, Example 43] were, in that order, 40 nM and 10 nM.
For `COc1cc(F)c(-n2cc(C(=O)N3CCC(CO)CC3)nc2NC(=O)c2ccc(OC(F)F)cc2)c(F)c1` [WO2022076764, Example 69], the EC50 is 2990 nM in assay [1] and 86 nM on fMet-Leu-Phe receptor.
On to `COc1ccc(-n2cc(-c3ccnc(Cl)c3)nc2NC(=O)c2ccc(OC(F)F)cc2)cc1` [WO2022076764, Example 20], for which the figures for the EC50 (in assay [1]; on fMet-Leu-Phe receptor) were 19 nM and 5 nM, respectively.
Regarding `COc1cc(F)c(-n2cc(-c3ccc(C#N)cc3)nc2NC(=O)c2ccc(OC(F)F)cc2)c(F)c1` [WO2022076764, Example 16], the EC50 in assay [1] was determined as 230 nM; at fMet-Leu-Phe receptor, 27 nM.
With `COc1cc(F)c(-n2cc(-c3ccc(Cl)c(C)c3)nc2NC(=O)c2ccc(OC(F)F)cc2)c(F)c1` [WO2022076764, Example 5], the values for the EC50 (in assay [1]; on fMet-Leu-Phe receptor) were 140 nM and 47 nM, respectively.
The matching figures for `COc1cc(F)c(-n2cc(C(=O)N3CCC(CO)C3)nc2NC(=O)c2ccc(OC(F)F)cc2)c(F)c1` (configuration not stated) [WO2022076764, Example 59]: 2200 nM and 82 nM.
The matching figures for `COc1cc(F)c(-n2cc(-c3ccc(F)c(F)c3)nc2NC(=O)c2ccc(OC(F)F)cc2)c(F)c1` [WO2022076764, Example 36]: 320 nM and 31 nM.
As for `COc1cc(F)c(-n2cc(C(=O)N3CCNCC3)nc2NC(=O)c2ccc(OC(F)F)cc2)c(F)c1` [WO2022076764, Example 61], the results for the EC50 (in assay [1]; at fMet-Leu-Phe receptor) were more than 10000 nM and 130 nM, respectively.
For `COc1ccc(-n2cc(-c3nc4ccccc4s3)nc2NC(=O)c2ccc(OC(F)F)cc2)cc1` [WO2022076764, Example 23], the EC50 in assay [1] is 44 nM; at fMet-Leu-Phe receptor, 28 nM.
The like results for `COc1ccc(-c2cn(-c3c(F)cc(OC)cc3F)c(NC(=O)c3ccc(OC(F)F)cc3)n2)cc1` [WO2022076764, Example 14] were, in that order, 160 nM and 39 nM.
